Values joined by “and” are separate entries in the source; they are usually repeats but may differ in a detail not shown here. Equal values may be shown once.
Experiments:
CNS cell [1] = assay: Growth inhibitory concentration dissolved in DMSO against human CNS cell line at 10E-4 M concentration; assay type: functional
Colon cell [2] = assay: Total growth inhibition of human Colon cell line at 10E-4 M concentration; assay type: functional; set-up: unit not given here
NSCLC [3] = assay: Total growth inhibition of human NSCLC cell line at 10E-4 M concentration; assay type: functional
Breast carcinoma cell [4] = assay: Total growth inhibition of human Breast cell line at 10E-4 M concentration; assay type: functional
[5] = tested on: Panel NCI-60 (60 carcinoma cell lines); assay: Total growth inhibition of human MG-MID cell line at 10E-4 M concentration; assay type: functional
Ovarian carcinoma cell [6] = assay: Total growth inhibition of human Ovarian cell line at 10E-4 M concentration; assay type: functional
Leukemia cell [7] = assay: Total growth inhibition of human Leukemia cell line at 10E-4 M concentration; assay type: functional
Melanoma cell [8] = assay: Total growth inhibition of human Melanoma cell line at 10E-4 M concentration; assay type: functional
Prostate cell [9] = assay: Total growth inhibition of human Prostate cell line at 10E-4 M concentration; assay type: functional
Prostate cell [10] = assay: Growth inhibitory concentration dissolved in DMSO against human Prostate cell line at 10E-4 M concentration; assay type: functional
Ovarian carcinoma cell [11] = assay: Growth inhibitory concentration dissolved in DMSO against human Ovarian cell line at 10E-4 M concentration; assay type: functional
Melanoma cell [12] = assay: Growth inhibitory concentration dissolved in DMSO against human Melanoma cell line at 10E-4 M concentration; assay type: functional
Colon cell [13] = assay: Growth inhibitory concentration dissolved in DMSO against human Colon cell line at 10E-4 M concentration; assay type: functional
NSCLC [14] = assay: Growth inhibitory concentration dissolved in DMSO against human NSCLC cell line at 10E-4 M concentration; assay type: functional; set-up: unit not given here
Renal cell = assay: Growth inhibitory concentration dissolved in DMSO against human Renal cell line at 10E-4 M concentration; assay type: functional; set-up: unit not given here
Breast carcinoma cell [15] = assay: Growth inhibitory concentration dissolved in DMSO against human Breast cell line at 10E-4 M concentration; assay type: functional
[16] = tested on: Panel NCI-60 (60 carcinoma cell lines); assay: Growth inhibitory concentration dissolved in DMSO against human MG-MID cell line at 10E-4 M concentration; assay type: functional
CNS cell [17] = assay: Cytotoxic effect dissolved in DMSO against CNS cell line at 10E-4 M concentration; assay type: functional, Homo sapiens
Colon cell [18] = assay: Cytotoxic effect dissolved in DMSO against Colon cell line at 10E-4 M concentration; assay type: functional, Homo sapiens
NSCLC [19] = assay: Cytotoxic effect dissolved in DMSO against NSCLC cell line at 10E-4 M concentration; assay type: functional, Homo sapiens
[20] = tested on: Panel NCI-60 (60 carcinoma cell lines); assay: Cytotoxic effect dissolved in DMSO against MG-MID cell line at 10E-4 M concentration; assay type: functional, Homo sapiens
Leukemia cell [21] = assay: Cytotoxic effect dissolved in DMSO against Leukemia cell line at 10E-4 M concentration; assay type: functional, Homo sapiens
Melanoma cell [22] = assay: Cytotoxic effect dissolved in DMSO against Melanoma cell line at 10E-4 M concentration; assay type: functional, Homo sapiens
HT-29 [23] = assay: Percentage of Cells after administration of compound dissolved in DMSO (10e-5 M) towards colon adenocarcinoma cell line HT-29 in G2/M Phase after 24 Hours of Treatment [control = 12.8]; assay type: functional, Homo sapiens
HT-29 [24] = assay: Percentage of Cells after administration of compound dissolved in DMSO (10e-6 M) towards colon adenocarcinoma cell line HT-29 in G2/M Phase after 24 Hours of Treatment [control = 12.8]; assay type: functional, Homo sapiens
HT-29 [25] = assay: Percentage of Cells after administration of compound dissolved in DMSO (10e-7M) towards colon adenocarcinoma cell line HT-29 in G2/M Phase after 24 Hours of Treatment [control = 12.8]; assay type: functional, Homo sapiens
HT-29 [26] = assay: Percentage of Cells after administration of compound dissolved in DMSO (10e-8 M) towards colon adenocarcinoma cell line HT-29 in G2/M Phase after 24 Hours of Treatment [control = 12.8]; assay type: functional, Homo sapiens
HT-29 [27] = assay: Percentage of Cells after administration of compound dissolved in DMSO (10e-4 M) towards colon adenocarcinoma cell line HT-29 in G2/M Phase after 24 Hours of Treatment [control = 12.8]; assay type: functional, Homo sapiens

Q: Cc1cn2c(/C=C3/C(=O)Nc4ccc(O)cc43)c(C)nc2s1 was tested. Which “pGI50 (-log GI50, M)” value (CNS cell [1]) did it give?
A: The value was 5.41.

Q: And the TGI (Colon cell [2])?
A: Its TGI is 4.35 and 4.5.

Q: What about the TGI (NSCLC [3]) of the same compound?
A: Its TGI is 4.36.

Q: And the TGI (Breast carcinoma cell [4])?
A: Its TGI is 4.66.

Q: What about the TGI [5] of the same compound?
A: The TGI was 4.44.

Q: And the TGI (Ovarian carcinoma cell [6])?
A: The TGI was 4.09.

Q: And the TGI (Leukemia cell [7])?
A: The TGI was 5.11.

Q: What about the TGI (Melanoma cell [8]) of the same compound?
A: Its TGI is 4.5.

Q: What about the TGI (Prostate cell [9]) of the same compound?
A: Its TGI is 4.42.

Q: And the “pGI50 (negative log molar GI50)” value (Prostate cell [10])?
A: The value was 5.52.

Q: What about the “pGI50 (negative log of GI50 in M)” value (Ovarian carcinoma cell [11]) of the same compound?
A: The value was 5.16.

Q: What about the “pGI50 (-log molar GI50)” value (Melanoma cell [12]) of the same compound?
A: Its value is 5.41.

Q: What about the “pGI50 (negative log of molar GI50)” value (Colon cell [13]) of the same compound?
A: The value was 5.78.

Q: What about the GI50 (NSCLC [14]) of the same compound?
A: Its GI50 is 5.4.

Q: And the GI50 (Renal cell)?
A: The GI50 was 5.3.

Q: And the “pGI50 (-log GI50, M)” value (Breast carcinoma cell [15])?
A: The value was 5.56.

Q: What about the GI50 [16] of the same compound?
A: The GI50 was 5.48.

Q: What about the LC50 (CNS cell [17]) of the same compound?
A: Its LC50 is 4.02.

Q: And the LC50 (Colon cell [18])?
A: Its LC50 is 4.03.

Q: And the LC50 (NSCLC [19])?
A: The LC50 was 4.02.

Q: And the LC50 [20]?
A: The LC50 was 4.05.

Q: And the LC50 (Leukemia cell [21])?
A: The LC50 was 4.47.

Q: And the LC50 (Melanoma cell [22])?
A: Its LC50 is 4.08.

Q: What about the Activity (HT-29 [23]) of the same compound?
A: Its Activity is 72.7%.

Q: And the Activity (HT-29 [24])?
A: The Activity was 13.4%.

Q: What about the Activity (HT-29 [25]) of the same compound?
A: Its Activity is 13.6%.

Q: And the Activity (HT-29 [26])?
A: The Activity was 12.2%.

Q: What about the Activity (HT-29 [27]) of the same compound?
A: Its Activity is 75.2%.

— ChEMBL document CHEMBL1141167, “Antitumor activity of new substituted 3-(5-imidazo[2,1-b]thiazolylmethylene)-2-indolinones and study of their effect on the cell cycle” (2005)
